From ChEMBL document CHEMBL3039007, “Structure-based identification of OATP1B1/3 inhibitors” (Mol Pharmacol, 2013)

Key:
[1] = target: T1, Solute carrier organic anion transporter family member 1B1 (Homo sapiens, UniProt Q9Y6L6); settings: chinese hamster, cho, 10 µM
T1 sequence (Q9Y6L6 whole entry): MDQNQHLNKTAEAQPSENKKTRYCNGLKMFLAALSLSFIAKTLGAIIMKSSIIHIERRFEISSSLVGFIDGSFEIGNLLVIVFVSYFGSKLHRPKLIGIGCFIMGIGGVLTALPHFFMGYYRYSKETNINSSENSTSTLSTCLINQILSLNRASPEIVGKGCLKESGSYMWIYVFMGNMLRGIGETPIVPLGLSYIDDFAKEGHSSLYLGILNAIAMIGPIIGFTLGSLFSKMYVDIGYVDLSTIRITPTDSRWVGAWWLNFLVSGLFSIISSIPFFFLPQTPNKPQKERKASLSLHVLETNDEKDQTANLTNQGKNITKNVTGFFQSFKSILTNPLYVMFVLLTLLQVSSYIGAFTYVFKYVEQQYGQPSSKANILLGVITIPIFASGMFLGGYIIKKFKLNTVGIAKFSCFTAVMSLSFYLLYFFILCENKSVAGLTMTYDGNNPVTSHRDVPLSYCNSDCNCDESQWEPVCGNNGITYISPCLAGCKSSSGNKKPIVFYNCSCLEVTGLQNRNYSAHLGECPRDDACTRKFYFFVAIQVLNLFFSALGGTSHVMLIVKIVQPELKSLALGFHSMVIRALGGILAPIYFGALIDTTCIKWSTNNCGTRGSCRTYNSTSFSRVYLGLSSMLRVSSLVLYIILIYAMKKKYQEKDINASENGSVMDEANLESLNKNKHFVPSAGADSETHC

[2] = target: T2, Solute carrier organic anion transporter family member 1B3 (Homo sapiens, UniProt Q9NPD5); settings: chinese hamster, cho, 10 µM
T2 sequence (Q9NPD5 whole entry): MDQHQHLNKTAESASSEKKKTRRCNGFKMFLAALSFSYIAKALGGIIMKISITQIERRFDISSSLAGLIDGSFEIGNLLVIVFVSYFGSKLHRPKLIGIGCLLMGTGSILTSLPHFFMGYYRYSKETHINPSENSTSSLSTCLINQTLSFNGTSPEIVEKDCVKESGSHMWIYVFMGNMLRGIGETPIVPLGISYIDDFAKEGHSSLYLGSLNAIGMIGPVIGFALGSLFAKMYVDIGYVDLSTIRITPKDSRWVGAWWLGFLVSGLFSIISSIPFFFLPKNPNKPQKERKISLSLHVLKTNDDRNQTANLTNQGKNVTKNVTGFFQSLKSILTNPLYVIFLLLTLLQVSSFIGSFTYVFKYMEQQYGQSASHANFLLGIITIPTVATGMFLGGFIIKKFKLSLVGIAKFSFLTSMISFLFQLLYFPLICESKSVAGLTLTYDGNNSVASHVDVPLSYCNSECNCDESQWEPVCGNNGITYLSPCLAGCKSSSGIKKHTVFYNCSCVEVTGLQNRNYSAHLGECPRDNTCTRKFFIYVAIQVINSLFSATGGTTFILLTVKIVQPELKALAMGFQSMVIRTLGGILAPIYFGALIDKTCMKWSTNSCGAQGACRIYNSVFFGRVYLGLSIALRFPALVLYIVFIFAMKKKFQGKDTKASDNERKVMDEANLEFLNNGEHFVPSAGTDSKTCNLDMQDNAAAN

SMILES	residual activity [1]	residual activity [2]
COc1ccc2c(c1)OC/C(=C/c1ccc(OC)c(OC)c1)C2=O [SAPPANONE A TRIMETHYL ETHER]	112%	100.7%
NC(=O)c1cc[n+](CC2=C(C(=O)[O-])N3C(=O)[C@@H](NC(=O)[C@@H](c4ccccc4)S(=O)(=O)[O-])[C@H]3SC2)cc1.[Na+] [CEFSULODIN SODIUM]	91.84%	101.2%
COc1cc(NS(=O)(=O)c2ccc(N)cc2)ncn1 [SULFAMONOMETHOXINE]	109.8%	105.3%
CC1(C)[C@H](O)CC(=O)[C@]2(C)[C@H]3CC[C@@]4(C)[C@H](c5ccoc5)OC(=O)[C@H]5O[C@]54[C@]3(C)C(=O)C[C@@H]12	33.49%	61.45%
O=C(Oc1cc(O)cc2c1C[C@@H](OC(=O)c1cc(O)c(O)c(O)c1)[C@@H](c1cc(O)c(O)c(O)c1)O2)c1cc(O)c(O)c(O)c1 [EPIGALLOCATECHIN 3,5-DIGALLATE]	55.31%	82.14%
NC1(C(=O)O)CC1 [1-Aminocyclopropane carboxylic acid]	125.9%	99.32%
COC(=O)[C@]1(C)CC[C@]2(C)CC[C@]3(C)C4=CC=C5C(=CC(=O)C(O)=C5C)[C@]4(C)CC[C@@]3(C)[C@@H]2C1 [PRISTIMERIN]	112.2%	99.45%
COC1=CC(=O)C(C(=O)c2ccccc2)=CC1=O [2-BENZOYL-5-METHOXYBENZOQUINONE]	106.8%	165.6%
CCOc1ccc2ccccc2c1C(=O)N[C@@H]1C(=O)N2[C@@H]1SC(C)(C)[C@@H]2C(=O)[O-].O.[Na+] [NAFCILLIN SODIUM]	74.51%	114.4%
C=C1CCC(=O)C(C)CCC2C1CC2(C)C (configuration not stated) [DIHYDROCARYOPHYLLEN-5-ONE]	24.21%	39.09%
O=C(/C=C/c1ccc(O)cc1)c1ccc(O)cc1O [ISOLIQUIRITIGENIN]	210.9%	119.2%
CCC(=O)O[C@]1(C(=O)CCl)[C@@H](C)C[C@H]2[C@@H]3CCC4=CC(=O)C=C[C@]4(C)[C@@]3(F)[C@@H](O)C[C@@]21C [CLOBETASOL PROPIONATE]	20.25%	21.34%
COc1cc(OC)c2c(=O)c(-c3ccc4c(c3)OCO4)coc2c1 [DERRUSTONE]	132.5%	94.69%
C=C1C(N)CC2CC1C2(C)C (stereo not drawn) [3-AMINO-beta-PINENE]	92.27%	104.4%
O=C1C(O)=C([C@H]2CC[C@H](c3ccc(Cl)cc3)CC2)C(=O)c2ccccc21 [ATOVAQUONE]	89.04%	81.94%
CCCCCC(C)N.O=S(=O)(O)O (configuration not stated)	70.88%	90.66%
Cc1noc(NS(=O)(=O)c2ccc(N)cc2)c1C [SULFISOXAZOLE]	78.99%	90.16%
Br.CC(N)Cc1ccc(O)cc1 (configuration not stated) [HYDROXYAMPHETAMINE HYDROBROMIDE]	85.8%	84.1%
C[C@H](CS)C(=O)N1CCC[C@H]1C(=O)O [CAPTOPRIL]	167%	105.2%
OCc1ccccc1O [SALICYL ALCOHOL]	92.07%	117.7%
CC[C@@]1([C@H]2O[C@H]([C@H]3O[C@@](O)(CO)[C@H](C)C[C@@H]3C)C[C@H]2C)CC[C@H]([C@@]2(C)CC[C@]3(C[C@H](O)[C@@H](C)[C@@H]([C@H](C)[C@H](OC)[C@@H](C)C(=O)[O-])O3)O2)O1.[Na+] [MONENSIN SODIUM]	78.11%	87%
COc1cc2c(cc1OC)-c1cc3ccc(OC)c(OC)c3c[n+]1CC2 [PALMITINE]	78.6%	102.6%
CCN1C[C@]2(C)CC[C@H](OC)[C@@]34C1[C@]1(OCO[C@@]15C[C@H](OC)[C@H]1C[C@]3(O)[C@@H]5[C@H]1OC)[C@@H](OC(C)=O)[C@H]24 [DELTALINE]	88.11%	103.5%

SMILES	residual activity [1]	residual activity [2]
C=CCCCCCCCCCCCC(O)CC(O)COC(C)=O (configuration not stated) [AVOCATIN A]	125.1%	99.6%
CNC(=O)O/N=C/C(C)(C)SC [ALDICARB]	120.5%	80.05%
Cc1cc(O)cc(C)c1Cl [CHLOROXYLENOL]	116.8%	121.1%
CC(=O)O[C@H]1CC[C@]2(C)[C@H]3CC=C4[C@@H]5CC(C)(C)CC[C@]5(C(=O)O)CC[C@@]4(C)[C@]3(C)CC[C@H]2C1(C)C [ACETYL OLEANOLIC ACID]	37.04%	24.66%
Cc1cc(O)ccc1Cl [CHLOROCRESOL]	119.6%	91.23%
COc1ccc(-c2cc(=O)c3ccc(OC)cc3o2)cc1 [4,7-DIMETHOXYFLAVONE]	91.89%	87.07%
CNC(=O)N(C)c1nnc(C(C)(C)C)s1 [TEBUTHIURON]	87.52%	111.4%
COc1ccc2cc([C@H](C)CO)ccc2c1 [NAPROXOL]	241.9%	102.8%
COc1ccc(CC(=O)c2ccc(O)cc2O)cc1 [ONONETIN]	149.8%	96.22%
NC(=O)c1cccc(N)c1 [3-AMINOBENZAMIDE]	106.1%	110.7%
C=C1C2=CC(=O)O[C@@H](c3ccoc3)[C@]2(C)CCC1[C@@]1(C)C=CC(=O)C(C)(C)[C@@H]1CC(=O)OC (some centres not stated) [DEOXYANDIROBIN]	27.69%	42.8%
CCCCC[C@@H](O)[C@H]1C(=O)O[C@H](C)[C@@H](O)/C=C/C=C/C=C/C=C/C=C(\C)[C@@H](O)C[C@H](O)C[C@H](O)C[C@H](O)C[C@H](O)C[C@H](O)C[C@@H]1O [FILIPIN]	96.46%	93.93%
COc1ccc2c(=O)c(CC(=O)O)coc2c1 [ANHYDROBRAZILIC ACID]	56.09%	76.12%
O=c1c2ccccc2oc2ccccc12 [XANTHONE]	123.7%	131.5%
C#C[C@]1(O)CC[C@H]2[C@@H]3CCC4=Cc5oncc5C[C@]4(C)[C@H]3CC[C@@]21C [DANAZOL]	80.9%	95.7%
CC(=O)Oc1ccccc1C(=O)Oc1ccccc1C(=O)O [DIPLOSALSALATE]	91.69%	93.37%
NS(=O)(=O)c1cc2c(cc1Cl)NC(C(Cl)Cl)NS2(=O)=O (configuration not stated) [TRICHLORMETHIAZIDE]	81.82%	86.79%
CC(=O)O[C@H]1CC[C@@]23C(=O)O[C@]45CC[C@H](C6=CC(=O)OC6)[C@@]4(C)CC[C@H]2[C@H]5CC[C@]3(O)C1	59.99%	85.76%
C[C@H]1C[C@@H]2[C@H]([C@@H](O)C[C@@]3(C)[C@H]2CC[C@]3(O)C(=O)CO)[C@@]2(C)C=CC(=O)C=C12 [METHYLPREDNISOLONE]	79.56%	93.74%
CC(=O)N[C@@H](CC(=O)O)C(=O)O	127.8163%	103.6%
CC(C)=CCc1c2c(c3occ(-c4ccc(O)cc4)c(=O)c3c1O)C=CC(C)(C)O2 [OSAJIN]	112.9%	88.68%
CC(=O)O[C@H]1C[C@@H](OC(C)=O)C(C)(C)[C@@H]2CC(=O)[C@]3(C)[C@H](CC[C@@]4(C)[C@H](C(=O)O)OC(=O)[C@H]5O[C@]543)[C@@]12C	72.69%	72.75%
CN1CC(=O)NC1=N [CREATININE]	105.7%	93.64%
